Measurements taken from patent publication US11925629B2, “Heterocyclic inhibitors of ERK1 and ERK2 and their use in the treatment of cancer” (Asana Biosciences, LLC, priority 2015, dated 2024).
Like-named read-outs stand apart in the source and are kept apart here.

Tests used:
ERK1 = molecular target: T1, ERK1 (Homo sapiens, UniProt P27361); experiment: ERK1 HTRF (biochemical) assay
T1 construct: purchased Jubilant Biosys
Protocol: (§1) ERK1 and ERK2 HTRF (Biochemical) Assays
These assays employed a homogeneous time resolved fluorescence (HTRF) technique. […] The plate was incubated at room temperature for 60 min with shaking. […] The IC50 values (half maximal inhibitory concentration values) were subsequently determined using a sigmoidal dose-response curve (variable slope) in GraphPad Prism® 5 software.

ERK2 = molecular target: T2, ERK2 (Homo sapiens, UniProt P28482); experiment: ERK2 HTRF (biochemical) assay
T2 construct: purchased Jubilant Biosys
T2 sequence (P28482 whole entry): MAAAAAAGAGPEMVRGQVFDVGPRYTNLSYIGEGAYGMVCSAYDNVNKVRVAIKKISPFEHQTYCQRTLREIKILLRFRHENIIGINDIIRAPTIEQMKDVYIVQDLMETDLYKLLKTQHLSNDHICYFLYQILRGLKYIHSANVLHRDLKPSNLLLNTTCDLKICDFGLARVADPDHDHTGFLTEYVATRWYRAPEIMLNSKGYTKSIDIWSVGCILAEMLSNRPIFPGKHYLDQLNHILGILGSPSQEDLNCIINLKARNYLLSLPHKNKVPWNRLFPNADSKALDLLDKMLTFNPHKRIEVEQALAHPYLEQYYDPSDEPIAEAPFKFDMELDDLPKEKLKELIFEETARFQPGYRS
Protocol: as §1
These assays employed a homogeneous time resolved fluorescence (HTRF) technique. The compounds were serially diluted by half-log with concentrations ranging from 0.0005 to 10 uM in the assay buffer (50 mM Tris pH=7.5, 1 mM EGTA, 2 mM DTT, 10 mM MgCl2, 0.100 Tween-20) and 20 uL of substrate-ATP mix [1 uM Biotin-LC-Myelin Basic Protein (MBP) derivatized Peptide (Anaspec)-24 uM ATP (Sigma)] was added to each well of the assay plate. Then 10 uL of enzyme mix [25 nM ERK1 or ERK2 (Jubilant Biosys) in assay buffer] was added to each well. The plate was incubated at room temperature for 60 min with shaking. The HTRF mix [625 nM LANCER Ultra Europium-anti-phospho-MBP (Perkin Elmer) and 2 nM Phycolink® Streptavidin-Allophycocyanin (SA-APC) (Prozyme) in HTRF buffer (50 mM Tris-HCl pH=7.5, 100 mM NaCl, 0.1% BSA, 0.05% Tween20, 0.5 mM EDTA)] was prepared and 75 uL of this mix was added to the HTRF plate. After incubation for 60 min at room temperature, 10 uL of the reaction mixture was transferred to the HTRF assay plate and incubated for 45 min at room temperature with shaking. Plate was read using Pherastar in HTRF mode (excitation 337 nm, emission 665 & 620 nm). The IC50 values (half maximal inhibitory concentration values) were subsequently determined using a sigmoidal dose-response curve (variable slope) in GraphPad Prism® 5 software.

[1] = tested on: HT-29 (colorectal carcinoma, B-RafV600E) cells; experiment: Cell proliferation (Alamar Blue) assay, HT-29; assay type: cell-based, human; details: Homo sapiens, HT-29, HT29 cells
Procedure, shortened: (§2)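 5000 cells/well, 16-24 h attach; cpd 0.0005-10 uM (3-fold dilns) x 72 h, 37° C./5% CO2; Alamar Blue 1× 1-3 h; fluor 540/590 nm; IC50, variable-slope sigmoid.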

[2] = tested on: HCT116 (colorectal carcinoma, K Ras G13D) cells; experiment: Cell proliferation (Alamar Blue) assay, HCT116; assay type: cell-based, human
Procedure, shortened: as §2

[3] = tested on: phosphorylation of RSK1(S380) (the downstream target of ERK1/2); experiment: Phospho-RSK1(S380) ELISA assay in HT-29 cells; assay type: cell-based, human; details: read-out: Mechanistic Cell Assay RSK1 Phos HT29 IC50
Procedure, shortened: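 HT-29 colorectal carcinoma cells (B-RafV600E), plated overnight at 37° C./5% CO2, were treated with compound dilutions for 2 h. Lysates were analysed by phospho-RSK1(Ser380) sandwich ELISA with absorbance at 450 nm. IC50 came from a sigmoidal variable-slope dose-response fit.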

[4] = Homo sapiens, HCT-116, HCT116 cells
[5] = Homo sapiens, HT-29, HT29 cells, phospho-RSK1(S380)
[6] = Homo sapiens, HT-29, HT29 cells

T1 sequence (P27361 whole entry): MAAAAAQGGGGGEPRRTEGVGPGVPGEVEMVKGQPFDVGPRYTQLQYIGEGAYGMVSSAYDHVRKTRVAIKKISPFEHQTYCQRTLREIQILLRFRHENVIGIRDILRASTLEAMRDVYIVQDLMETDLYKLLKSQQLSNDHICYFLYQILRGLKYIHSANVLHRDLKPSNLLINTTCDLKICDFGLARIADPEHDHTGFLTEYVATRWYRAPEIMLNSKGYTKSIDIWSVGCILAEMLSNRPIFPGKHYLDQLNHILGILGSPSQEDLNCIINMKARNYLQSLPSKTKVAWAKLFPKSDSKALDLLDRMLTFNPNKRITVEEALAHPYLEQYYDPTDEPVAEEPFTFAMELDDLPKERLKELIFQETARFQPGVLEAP

Row | Compound | IC50 (ERK1; HTRF biochemical assay) | IC50 (ERK2; HTRF biochemical assay) | IC50 [1] | IC50 [2, 4] | IC50 [3, 5] | IC50 (ERK1; HTRF) | IC50 (ERK2; HTRF) | IC50 [3, 6] | IC50 ([2]; HCT116 cells) | IC50 ([3]; HT29 cells, phospho-RSK1(S380))
1 | Cc1cnc(NC2CCOCC2)nc1-n1cnc(C(=O)N[C@H](CN)c2cc(F)cc(Cl)c2)c1 [Compound #275, (S)—N-(2-Amino-1-(3-chloro-5-fluorophenyl)ethyl)-1-(5-methyl-2-((tetrahydro-2H-pyran-4-yl)amino)pyrimidin-4-yl)-1H-imidazole-4-carboxamide] | < 50 nM | ≤ 50 nM | ≤ 100 nM | ≤ 100 nM | ≤ 100 nM |  |  |  |  | 
2 | Cc1cnc(NC2CCOCC2)nc1-n1cnc(C(=O)NC(CN)c2cc(F)cc(Cl)c2)c1 (centres unmarked) [Example 236, N-(2-amino-1-(3-chloro-5-fluorophenyl)ethyl)-1-(5-methyl-2-((tetrahydro-2H-pyran-4-yl)amino)pyrimidin-4-yl)-1H-imidazole-4-carboxamide] | < 50 nM | ≤ 50 nM | ≤ 100 nM | ≤ 100 nM | ≤ 100 nM |  |  |  |  | 
3 | Cc1cnc(N[C@H]2CCOC2)nc1-n1cnc(C(=O)NCc2ccc(C(F)(F)F)c(F)c2)c1 [Example 321, (S)-N-(3-fluoro-4-(trifluoromethyl)benzyl)-1-(5-methyl-2-((tetrahydrofuran-3-yl)amino)pyrimidin-4-yl)-1H-imidazole-4-carboxamide] |  |  | > 2500 nM | > 2500 nM |  | 50 to 100 nM | ≤ 50 nM | 500 to 2500 nM |  | 
4 | Cc1cnc(N[C@H]2CCOC2)nc1-n1cnc(C(=O)NCc2c(Cl)cccc2C(F)(F)F)c1 [Example 322, (S)-N-(2-chloro-6-(trifluoromethyl)benzyl)-1-(5-methyl-2-((tetrahydrofuran-3-yl)amino)pyrimidin-4-yl)-1H-imidazole-4-carboxamide] |  |  | > 2500 nM | > 2500 nM |  | 500 to 2500 nM | 500 to 2500 nM | > 2500 nM |  | 
5 | Cc1cnc(N[C@H]2CCOC2)nc1-n1cnc(C(=O)NCc2cccc(Cl)c2F)c1 [Example 315, (S)-N-(3-chloro-2-fluorobenzyl)-1-(5-methyl-2-((tetrahydrofuran-3-yl)amino)pyrimidin-4-yl)-1H-imidazole-4-carboxamide] |  |  | > 2500 nM | > 2500 nM |  | < 50 nM | ≤ 50 nM | > 2500 nM |  | 
6 | N-(1-(3-chlorophenyl)-2-hydroxypropyl)-1-(5-methyl-2-((tetrahydro-2H-pyran-4-yl)amino)pyrimidin-4-yl)-1H-imidazole-4-carboxamide (isomer #1) [Example 253] | < 50 nM | ≤ 50 nM |  |  |  |  |  |  | > 2500 nM | 500 to 2500 nM
7 | Cc1cccc(CNC(=O)c2cn(-c3nc(NC4CCOCC4)ncc3C)cn2)n1 [Example 279, 1-(5-methyl-2-((tetrahydro-2H-pyran-4-yl)amino)pyrimidin-4-yl)-N-((6-methylpyridin-2-yl)methyl)-1H-imidazole-4-carboxamide] | < 50 nM | ≤ 50 nM |  | 500 to 2500 nM | 100 to 250 nM |  |  |  |  | 
8 | Cc1cnc(N[C@H]2CCOC2)nc1-n1cnc(C(=O)NCc2cccc(C(C)(C)C)c2)c1 [Example 327, (S)-1-(5-methyl-2-((tetrahydrofuran-3-yl)amino)pyrimidin-4-yl)-N-(3-tert-butylbenzyl)-1H-imidazole-4-carboxamide] |  |  | 500 to 2500 nM | > 2500 nM |  | < 50 nM | ≤ 50 nM | 100 to 250 nM |  | 
9 | Cc1cnc(N[C@H]2CCOC2)nc1-n1cnc(C(=O)NCc2ccc(Cl)c(F)c2)c1 [Example 324, (S)-N-(4-chloro-3-fluorobenzyl)-1-(5-methyl-2-((tetrahydrofuran-3-yl)amino)pyrimidin-4-yl)-1H-imidazole-4-carboxamide] |  |  | > 2500 nM | > 2500 nM |  | < 50 nM | ≤ 50 nM | 500 to 2500 nM |  | 

The next lines start with the values.

Row | IC50 (ERK1; HTRF biochemical assay) | IC50 (ERK2; HTRF biochemical assay) | IC50 [1] | IC50 [2, 4] | IC50 [3, 5] | IC50 (ERK1; HTRF) | IC50 (ERK2; HTRF) | IC50 [3, 6] | IC50 ([2]; HCT116 cells) | IC50 ([3]; HT29 cells, phospho-RSK1(S380)) | Compound
10 | < 50 nM | ≤ 50 nM | 100 to 250 nM | ≤ 100 nM | 100 to 250 nM |  |  |  |  |  | Cc1cnc(NC2CC(F)(F)C2)nc1-n1cnc(C(=O)N[C@H](CN)c2cccc(Cl)c2)c1 [Compound #259, (S)—N-(2-Amino-1-(3-chlorophenyl)ethyl)-1-(2-((3,3-difluorocyclobutyl)amino)-5-methylpyrimidin-4-yl)-1H-imidazole-4-carboxamide]
11 | < 50 nM | ≤ 50 nM | ≤ 100 nM | 100 to 250 nM | 250 to 500 nM |  |  |  |  |  | Cc1cnc(NC2CCOCC2)nc1-n1cnc(C(=O)NCc2cc(F)cc(Cl)c2CO)c1 [Compound #297, N-(3-Chloro-5-fluoro-2-(hydroxymethyl)benzyl)-1-(5-methyl-2-((tetrahydro-2H-pyran-4-yl)amino)pyrimidin-4-yl)-1H-imidazole-4-carboxamide]
12 | 50 to 100 nM | ≤ 50 nM | > 2500 nM | > 2500 nM | > 2500 nM |  |  |  |  |  | Cc1cnc(Nc2ccccn2)cc1-n1ccc(C(=O)NC(CO)c2ccccc2)c1 (centres unmarked) [Example 149, N-(2-hydroxy-1-phenylethyl)-1-(5-methyl-2-(pyridin-2-ylamino)pyridin-4-yl)-1H-pyrrole-3-carboxamide]
13 | < 50 nM | ≤ 50 nM | ≤ 100 nM | ≤ 100 nM | ≤ 100 nM |  |  |  |  |  | Cc1cnc(N[C@H]2CCOC2)nc1-n1cnc(C(=O)NC(CN)c2cc(F)cc(Cl)c2)c1 (stereo partly drawn) [Example 282, N-(2-amino-1-(3-chloro-5-fluorophenyl)ethyl)-1-(5-methyl-2-(((S)-tetrahydrofuran-3-yl)amino)pyrimidin-4-yl)-1H-imidazole-4-carboxamide]
14 |  |  | > 2500 nM | > 2500 nM |  | 500 to 2500 nM | 100 to 500 nM | > 2500 nM |  |  | Cc1cnc(N[C@H]2CCOC2)nc1-n1cnc(C(=O)NCc2c(F)cccc2F)c1 [Example 316, (S)-N-(2,6-difluorobenzyl)-1-(5-methyl-2-((tetrahydrofuran-3-yl)amino)pyrimidin-4-yl)-1H-imidazole-4-carboxamide]
15 |  |  | > 2500 nM | > 2500 nM |  | < 50 nM | ≤ 50 nM | 500 to 2500 nM |  |  | Cc1cnc(N[C@H]2CCOC2)nc1-n1cnc(C(=O)NCc2cccc(Cl)c2Cl)c1 [Example 319, (S)-N-(2,3-dichlorobenzyl)-1-(5-methyl-2-((tetrahydrofuran-3-yl)amino)pyrimidin-4-yl)-1H-imidazole-4-carboxamide]
16 |  |  | > 2500 nM | > 2500 nM |  | 50 to 100 nM | ≤ 50 nM | > 2500 nM |  |  | Cc1cnc(N[C@H]2CCOC2)nc1-n1cnc(C(=O)NCc2cccc(C(F)(F)F)c2Cl)c1 [Example 317, (S)-N-(2-chloro-3-(trifluoromethyl)benzyl)-1-(5-methyl-2-((tetrahydrofuran-3-yl)amino)pyrimidin-4-yl)-1H-imidazole-4-carboxamide]
17 |  |  | > 2500 nM | > 2500 nM |  | < 50 nM | ≤ 50 nM | 250 to 500 nM |  |  | Cc1cccc(CNC(=O)c2cn(-c3nc(N[C@H]4CCOC4)ncc3C)cn2)c1 [Example 323, (S)-1-(5-methyl-2-((tetrahydrofuran-3-yl)amino)pyrimidin-4-yl)-N-(3-methylbenzyl)-1H-imidazole-4-carboxamide]
